Counter-ions that a name gives are not always drawn.
Test system: HT29 RAMS11 overexpressing cells
Experiment: High-throughput viability assay (resazurin), 119 FDA-approved anticancer drugs, RAMS11 overexpressing cells (Clone1, Clone2)
Conditions: 72 h, vs empty vector control
[1] = OE1 (RAMS11 overexpression clone 1), 0.1 uM drug
[2] = OE1 (RAMS11 overexpression clone 1), 1 uM drug
[3] = OE1 (RAMS11 overexpression clone 1), 10 uM drug
[4] = OE2 (RAMS11 overexpression clone 2), 0.1 uM drug
[5] = OE2 (RAMS11 overexpression clone 2), 1 uM drug
[6] = OE2 (RAMS11 overexpression clone 2), 10 uM drug

Protocol: The FDA-approved anticancer panel included multiple classes of drugs such as kinase inhibitors, alkylating agents, antineoplastic antibiotics, anthracycline antibiotics, and antineoplastic agents (topoisomerase inhibitors). The HT29 RAMS11 overexpressing and control cells were treated for 72 h to assess cellular viability upon drug treatment (FIG. 14a and TABLE 3). […] Due to 5-FU commonly used to treat mCRC, we further determined if RAMS11 expression altered drug sensitivity in treated cells.
Drugs were diluted in DMSO to 1 mM and the well assignments were rearranged so drugs were confined to the inner 60 wells of 96-well plates. […] The next day serial diluted drug was added to pre-seeded plates in media containing 1% DMSO vehicle, using a Robbins Hydra 96 micro dispenser. Two 96-well plates of cells were used as vehicle controls. The plates were incubated for 3 days. Percent viability was scored by incubating cells for 3 h with resazurin sodium (0.023 mg/mL, Sigma R7017). The reaction was stopped by the addition of SDS (1% final concentration). Fluorescence Ex/Em 540/590 was read in a Biotek Synergy H1 plate reader (Winooski, VT). The fluorescence values for the vehicle plates were averaged and percent viability was determined by the formula: Percent viability=(average vehicle−value)/(average vehicle−average resazurin in media blank)×100. […] Assays were repeated more than three times.

Compound	Viability Fold Change [1]	Viability Fold Change [2]	Viability Fold Change [3]	Viability Fold Change [4]	Viability Fold Change [5]	Viability Fold Change [6]
COC(=O)C[C@](O)(CCCC(C)(C)O)C(=O)O[C@@H]1C(OC)=C[C@]23CCCN2CCc2cc4c(cc2[C@H]13)OCO4 [Omacetaxine mepesuccinate]	1.354	1.614	1.606	1.376	1.468	1.436
CCC1=C[C@@H]2CN(C1)Cc1c([nH]c3ccccc13)[C@@](C(=O)OC)(c1cc3c(cc1OC)N(C)[C@H]1[C@@](O)(C(=O)OC)[C@H](OC(C)=O)[C@]4(CC)C=CCN5CC[C@]31[C@@H]54)C2 [Vinorelbine tartrate]	0.9568	1.194	2.913	0.9481	1.067	2.913
Cn1nnc2c(C(N)=O)ncn2c1=O [Temozolomide]	0.9344	0.9467	0.8777	0.8975	1.032	0.9198
CC[C@@]1(O)C(=O)OCc2c1cc1n(c2=O)Cc2cc3c(CN(C)C)c(O)ccc3nc2-1 [Topotecan HCL]	1.11	2.225	3.389	1.018	2.127	2.763
Nc1ncn([C@H]2C[C@H](O)[C@@H](CO)O2)c(=O)n1 [Decitabine]	0.9064	0.9366	0.8624	1.026	1.091	1.168
COc1nc(N)nc2c1ncn2[C@@H]1O[C@H](CO)[C@@H](O)[C@@H]1O [Nelarabine]	0.9819	1.033	0.9555	0.9462	1.007	0.9701
Arsenic trioxide	0.9683	0.9697	0.8821	1.015		1.115
C/C=C1\NC(=O)[C@H]2CSSCC/C=C/[C@H](CC(=O)N[C@H](C(C)C)C(=O)N2)OC(=O)[C@H](C(C)C)NC1=O [Romidepsin]	6.243	5.327	4.427	6.211	5.577	4.697
c1cc(CN2CCCNCCNCCCNCC2)ccc1CN1CCCNCCNCCCNCC1 [Plerixafor]	0.9866	1.152	1.057	1.085	1.208	1.062
Cc1cn(-c2cc(NC(=O)c3ccc(C)c(Nc4nccc(-c5cccnc5)n4)c3)cc(C(F)(F)F)c2)cn1 [Nilotinib]	0.8679	0.749	0.7379	1.013	0.888	0.7462
CC(C)Cn1cnc2c(N)nc3ccccc3c21 [Imiquimod]	1.048	1.101	1.03	1.037	1.138	0.9752
COc1cc2ncnc(Nc3ccc(F)c(Cl)c3)c2cc1OCCCN1CCOCC1 [Gefitinib]	0.9453	1.164	1.468	0.9436	1.227	1.392

— patent US12024707B2, “Methods and compositions for modulating lncRNAs and methods of treatment based on lncRNA expression” (Washington University, priority 2020, dated 2024)
